Earlier results, collected in patent US4127519A, “Octadecapeptides, intermediates therefor, and compositions and methods employing said octadecapeptides” (priority 1977, dated 1978).

Columns and labels:
[1] = tested on: brain opiate receptor sites
[2] = injected directly into the brain of the rat

H-Tyr-Gly-Gly-Phe-Met-OH [methionine enkephalin]
binding to partially purified brain opiate receptor sites [1]: binds stereo-specifically
analgesic activity [2]: weak analgesic agent of short duration
